Data: patent US20170239330A1, “FORMULATIONS FOR HISTATIN THERAPEUTICS” (RAPID PATHOGEN SCREENING, INC., priority 2014, published 2017)

Key:
[1] = test system: cultured ocular epithelial cells; conditions: in vitro; cited from earlier work
[2] = Stability of ocular histatin formulation determined by mass spectroscopy; type: physicochemical; conditions: 100 μg/mL in gel tears lubricating eye drop with 0.25% PEG in aqueous buffered borate salt solution
Description: In some embodiments, the ocular histatin formulation is stable both at room temperature (25° C.) and at 45° C. for at least 90 days.

Substance | Cytotoxicity to cultured ocular epithelial cells [1] | Time formulation found stable, by mass spectroscopy ([2]; 25° C.) | Time formulation found stable, by mass spectroscopy ([2]; 45° C.)
Benzalkonium chloride | significant cytotoxicity | – | –
cyclo(DNLPETGGDSHEKRHHGYRRKFHEKHHSHREFPFYGDYGSNYLY) [cyclized histatin 1] | – | at least 505 days | at least 90 days
